Measurements: paper PMC3929664, “A Panel of Diverse Assays to Interrogate the Interaction between Glucokinase and Glucokinase Regulatory Protein, Two Vital Proteins in Human Disease” (PLoS ONE, 2014)
Structures can show the parent of a compound that is named as a salt. Blank lines part the entries; values can stand above or below the molecule they belong to.

Biological target: T1, GCK-GKRP interaction (recombinant human GST-GCK and FLAG-GKRP) (Homo sapiens, UniProt P35557+Q14397)
T1 construct: made in house
T1 sequence (P35557 1-465): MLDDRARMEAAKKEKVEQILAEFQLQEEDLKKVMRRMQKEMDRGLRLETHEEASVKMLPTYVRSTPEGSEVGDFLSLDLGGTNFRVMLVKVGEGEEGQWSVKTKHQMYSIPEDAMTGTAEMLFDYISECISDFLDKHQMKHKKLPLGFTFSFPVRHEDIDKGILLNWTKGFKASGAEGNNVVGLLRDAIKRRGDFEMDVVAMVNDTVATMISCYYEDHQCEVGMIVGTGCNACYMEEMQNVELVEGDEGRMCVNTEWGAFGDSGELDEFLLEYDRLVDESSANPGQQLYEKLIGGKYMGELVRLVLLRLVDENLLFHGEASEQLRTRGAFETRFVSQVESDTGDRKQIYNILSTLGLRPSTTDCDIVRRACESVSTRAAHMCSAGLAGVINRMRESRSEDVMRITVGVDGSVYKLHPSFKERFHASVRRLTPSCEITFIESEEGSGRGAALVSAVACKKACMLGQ
T1 sequence (Q14397 1-625): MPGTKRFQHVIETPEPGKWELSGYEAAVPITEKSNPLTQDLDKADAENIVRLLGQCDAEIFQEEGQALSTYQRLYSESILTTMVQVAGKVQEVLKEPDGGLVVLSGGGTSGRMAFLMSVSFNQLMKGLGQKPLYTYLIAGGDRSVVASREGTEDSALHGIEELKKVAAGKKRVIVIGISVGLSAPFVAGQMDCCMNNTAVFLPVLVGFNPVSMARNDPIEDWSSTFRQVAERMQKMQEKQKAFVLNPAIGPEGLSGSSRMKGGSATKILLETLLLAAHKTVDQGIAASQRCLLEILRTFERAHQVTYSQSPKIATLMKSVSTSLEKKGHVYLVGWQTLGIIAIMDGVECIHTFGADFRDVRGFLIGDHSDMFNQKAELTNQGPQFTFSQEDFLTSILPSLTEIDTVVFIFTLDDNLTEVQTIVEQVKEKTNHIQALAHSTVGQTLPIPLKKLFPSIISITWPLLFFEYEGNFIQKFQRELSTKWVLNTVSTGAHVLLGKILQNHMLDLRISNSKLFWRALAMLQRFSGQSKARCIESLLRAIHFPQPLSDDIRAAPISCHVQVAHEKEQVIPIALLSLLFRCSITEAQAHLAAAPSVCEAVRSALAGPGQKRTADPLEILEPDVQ
Assay: HTRF assay of the GCK-GKRP protein-protein interaction
Format: binding
Conditions: 5 nM GCK, 5 nM GKRP
Description: Homogeneous time-resolved fluorescence (HTRF) technology (Cisbio Bioassays, Bedford, MA, USA) was utilized for antibody-based FRET measurement of the GCK-GKRP protein-protein interaction. Recombinant human GST-GCK and FLAG-GKRP were mixed in an HTRF assay buffer containing 2 mM MgCl2, 25 mM KCl, 25 mM HEPES, 1 mM DTT, 0.1% Tween-20, and 0.025% BSA (all buffer components Sigma-Aldrich). The pH was adjusted to 7.1 by drop-wise addition of 10 N NaOH. […] For assays in 1536-well plate format, the two reaction mixes were dispensed using an Aurora Discovery BioRAPTR Flying Reagent Dispenser (BioRAPTR; Beckman Coulter, Inc., Brea, CA, USA) (3 µl/well for protein-containing buffer; 1 µl/well for detection antibodies) into white 1536-well solid-bottom medium binding plates (Greiner Bio-One, Monroe, NC, USA). […] For the LOPAC^1280 library screen, column 1 was all components with DMSO (maximum signal) and column 3 was no GKRP with DMSO (minimum signal). These two control columns were used for data normalization. The final HTS protocol is in Table S1, and the data have been deposited in PubChem (AID 743207).
S6P, F1P, and glucose were dissolved in water; GKAs were dissolved in DMSO.
The assay was validated using a range (0–150 nM) of GCK and GKRP concentrations at manufacturer-recommended detection antibody concentrations ( Figure 2A ). Fluorescence was measured immediately upon mixing, and every 30 minutes thereafter for a total of 240 minutes. The plate was covered and incubated at room temperature throughout the course of the experiment.
The assay was miniaturized to 1536-well plate format and, concurrently, specificity of detection was validated by using known modulators of the GCK-GKRP interaction.
The EC80 value represents a compromise between the desire for large enough signal enhancement and the need to maintain a binding level that is not too saturated so that it can be outcompeted by compounds of interest. Additionally, this approach enables detection of specific competitors of S6P, which would likely be acting on GKRP as desired, and not on GCK. […] Both glucose and GKAs interfere with the binding of GKRP to GCK and decrease GKRP inhibition, [44], [45], while F1P binds to GKRP and is competitive with respect to S6P [46].

SMILES: O=C(O)C1=CC(=C(c2ccc(O)c(C(=O)O)c2)c2ccc(O)c(C(=O)O)c2)C=CC1=O [ATA, aurintricarboxylic acid]
LOPAC1280 screen outcome (2 µM S6P): inhibitors of the GCK-GKRP interaction

IC50 (2 µM S6P, mean ± SD, read-out: IC50 (inhibition of GCK-GKRP interaction, HTRF signal)): 70000 ± 5400 nM
SMILES: O=C(COP(=O)(O)O)[C@@H](O)[C@H](O)[C@H](O)CO [F1P, fructose 1-phosphate]

EC80: 2000 nM
EC50 (1536-well, mean ± SD, read-out: EC50 (enhancement of HTRF signal)): 400 ± 80 nM
SMILES: O=P(O)(O)OC[C@@H](O)[C@@H](O)[C@H](O)[C@@H](O)CO [S6P, sorbitol 6-phosphate]

LOPAC1280 screen outcome (2 µM S6P): inhibitors of the GCK-GKRP interaction
SMILES: Cc1ccc(C(=O)Nc2ccc(S(=O)(=O)O)c3cc(S(=O)(=O)O)cc(S(=O)(=O)O)c23)cc1NC(=O)c1cccc(NC(=O)Nc2cccc(C(=O)Nc3cc(C(=O)Nc4ccc(S(=O)(=O)O)c5cc(S(=O)(=O)O)cc(S(=O)(=O)O)c45)ccc3C)c2)c1 [suramin sodium salt]
